As for `NS(=O)(=O)c1cccc(-c2cn(-c3nc(-c4ccc(Cl)cc4)cc(C(F)(F)F)n3)cn2)c1` [Example 177, 3-{1-[4-(4-Chloro-phenyl)-6-trifluoromethyl-pyrimidin-2-yl]-1H-imidazol-4-yl}-benzenesulfonamide], the melting point was determined as 225 °C.

As for `Cc1cc(-c2ccc(Cl)cc2)nc(-n2cnc(-c3ccc(S(N)(=O)=O)cc3)c2)n1` [Example 180, 4-{1-[4-(4-Chloro-phenyl)-6-methyl-pyrimidin-2-yl]-1H-imidazol-4-yl}-benzenesulfonamide], the melting point stood at 312 °C.

Take `NS(=O)(=O)c1cnc(-c2cn(-c3cc(C(F)(F)F)cc(-c4ccc(C(F)(F)F)cc4)n3)cn2)s1` [Example 284, 2-{1-[4-Trifluoromethyl-6-(4-trifluoromethyl-phenyl)-pyridin-2-yl]-1H-imidazol-4-yl}-thiazole-5-sulfonic acid amide]: the melting point is greater than 266 °C.

With `Nc1ncc(-c2cn(-c3nc(-c4ccc(Cl)cc4)cc(C4CC4)n3)cn2)cn1` [Example 51, 5-{1-[4-(4-Chloro-phenyl)-6-cyclopropyl-pyrimidin-2-yl]-1H-imidazol-4-yl}-pyrimidin-2-ylamine], the melting point lay in the range of 238 to 240 °C.

As for `NS(=O)(=O)c1ccc(-c2nc(-c3nc(-c4ccc(Cl)cc4)cc(C(F)(F)F)n3)no2)s1` [Example 24, 5-{3-[4-(4-Chloro-phenyl)-6-trifluoromethyl-pyrimidin-2-yl]-[1,2,4]oxadiazol-5-yl}-thiophene-2-sulfonic acid amide], the melting point is 236.5 °C.

Take `Nc1cccc(-c2cccc(-c3nc(-c4ccc(C(F)(F)F)cc4)cc(C(F)(F)F)n3)c2)c1` [Example 220, 3′-[4-Trifluoromethyl-6-(4-trifluoromethyl-phenyl)-pyrimidin-2-yl]-biphenyl-3-ylamine]: the melting point stood at 156.5 °C.

Take `CC(C)c1cc(-c2ccc(C(F)(F)F)cc2)nc(-n2cnc(-c3cnc(N)nc3)c2)n1` [Example 153, 5-{1-[4-Isopropyl-6-(4-trifluoromethyl-phenyl)-pyrimidin-2-yl]-1H-imidazol-4-yl}-pyrimidin-2-ylamine]: the melting point was 277 °C.

On to `NS(=O)(=O)c1cccc(-c2noc(-c3nc(-c4ccc(C(F)(F)F)cc4)cc(C(F)F)n3)n2)c1` [Example 40, 3-{5-[4-Difluoromethyl-6-(4-trifluoromethyl-phenyl)-pyrimidin-2-yl]-[1,2,4]oxadiazol-3-yl}-benzenesulfonamide], for which the melting point was found to be 217.5 °C.

In turn, `NS(=O)(=O)c1cccc(-c2cccc(-c3nc(-c4ccc(C(F)(F)F)cc4)cc(C(F)(F)F)n3)c2)c1` [Example 157, 3′-[4-Trifluoromethyl-6-(4-trifluoromethyl-phenyl)-pyrimidin-2-yl]-biphenyl-3-sulfonic acid amide] showed a melting point of 267 °C.

As for `Cc1cc(-c2ccc(Cl)cc2)nc(-n2cnc(-c3cccc(S(N)(=O)=O)c3)c2)n1` [Example 176, 3-{1-[4-(4-Chloro-phenyl)-6-methyl-pyrimidin-2-yl]-1H-imidazol-4-yl}-benzenesulfonamide], the melting point turned out to be 275 °C.

In the case of `COCCNS(=O)(=O)c1cccc(-c2cccc(-c3cc(-c4ccc(C(F)(F)F)cc4)cc(C)n3)n2)c1` [Example 371, N-(2-Methoxy-ethyl)-3-[6′-methyl-4′-(4-trifluoromethyl-phenyl)-[2,2′]bipyridinyl-6-yl]-benzenesulfonamide], the melting point stood at 126 °C.

`Cc1cc(-c2cc(C(F)(F)F)nc(-n3cnc(-c4ccc(N)nc4)c3)n2)ccc1C(F)(F)F` [Example 120, 5-{1-[4-(3-Methyl-4-trifluoromethyl-phenyl)-6-trifluoromethyl-pyrimidin-2-yl]-1H-imidazol-4-yl}-pyridin-2-ylamine] displayed a melting point of 290 °C.

In the case of `CC(C)(C)NS(=O)(=O)c1cccc(-c2cc(-c3cc(C(F)(F)F)cc(-c4ccc(C(F)(F)F)cc4)n3)ccn2)c1` [Example 285, N-tert-Butyl-3-[4-trifluoromethyl-6-(4-trifluoromethyl-phenyl)-[2,4′]bipyridinyl-2′-yl]-benzenesulfonamide], the melting point was 196 °C.

Regarding `COc1cc(-c2cc(C)nc(-c3ccnc(-c4cccc(S(=O)(=O)NC(C)(C)C)c4)c3)c2)ccc1C(F)(F)F` [Example 336, N-tert-Butyl-3-[4-(3-methoxy-4-trifluoromethyl-phenyl)-6-methyl-[2,4′]bipyridinyl-2′-yl]-benzenesulfonamide], the melting point is 189 °C.

Turning to `Cc1cc(-c2ccc(C(F)(F)F)cc2)nc(-n2cnc(-c3cccc(S(N)(=O)=O)c3)c2)n1` [Example 184, 3-{1-[4-Methyl-6-(4-trifluoromethyl-phenyl)-pyrimidin-2-yl]-1H-imidazol-4-yl}-benzenesulfonamide], the melting point was 186 °C.

As for `Nc1ccc(-c2cccc(-c3cc(-c4ccc(C(F)(F)F)cc4)cc(C(F)(F)F)n3)c2)cn1` [Example 232, 5-{3-[6-Trifluoromethyl-4-(4-trifluoromethyl-phenyl)-pyridin-2-yl]-phenyl}-pyridin-2-ylamine], the melting point stood at 166 °C.

`Cc1cc(-c2ccc(C(F)(F)F)cc2)cc(-c2cc(-c3ccc(N)nc3)cs2)n1` [Example 256, 5-{5-[6-Methyl-4-(4-trifluoromethyl-phenyl)-pyridin-2-yl]-thiophen-3-yl}-pyridin-2-ylamine] had a melting point of 175 °C.

As to `Cc1cc(-c2ccc(C(F)(F)F)cc2)cc(-c2ccc(-c3cnc(N)nc3)s2)n1` [Example 253, 5-{5-[6-Methyl-4-(4-trifluoromethyl-phenyl)-pyridin-2-yl]-thiophen-2-yl}-pyrimidin-2-ylamine], the melting point is greater than 250 °C.

`O=S(=O)(NCCO)c1cccc(-c2cccc(-c3nc(-c4ccc(C(F)(F)F)cc4)cc(C(F)(F)F)n3)c2)c1` [Example 391, 3′-[4-Trifluoromethyl-6-(4-trifluoromethyl-phenyl)-pyrimidin-2-yl]-biphenyl-3-sulfonic acid (2-hydroxy-ethyl)-amide] displayed a melting point of 153 °C.

Take `FC(F)(F)c1cc(-c2ccc(Cl)cc2)nc(-n2cccc2)n1` [Example 6, 4-(4-Chloro-phenyl)-2-pyrrol-1-yl-6-trifluoromethyl-pyrimidine]: the melting point was 128.5 °C.

Regarding `Nc1ncc(-c2cccc(-c3cc(-c4ccc(C(F)(F)F)cc4)cc(C(F)(F)F)n3)c2)cn1` [Example 233, 5-{3-[6-Trifluoromethyl-4-(4-trifluoromethyl-phenyl)-pyridin-2-yl]-phenyl}-pyrimidin-2-ylamine], the melting point was 260 °C.

On to `Cc1cc(-c2cc(C(F)(F)F)nc(-c3ccnc(-c4ccc(N)nc4)c3)n2)ccc1C(F)(F)F` [Example 121, 4-[4-(3-Methyl-4-trifluoromethyl-phenyl)-6-trifluoromethyl-pyrimidin-2-yl]-[2,3′]bipyridinyl-6′-ylamine], for which the melting point was 223 °C.

Turning to `NS(=O)(=O)c1ccc(-c2cn(-c3nc(-c4cccc(Cl)c4)cc(C(F)(F)F)n3)cn2)s1` [Example 188, 5-{1-[4-(3-Chloro-phenyl)-6-trifluoromethyl-pyrimidin-2-yl]-1H-imidazol-4-yl}-thiophene-2-sulfonic acid amide], the melting point is 280 °C.

Take `CCOc1cc(-c2cc(C(F)(F)F)nc(-c3ccnc(-c4ccc(S(N)(=O)=O)s4)c3)n2)ccc1C(F)(F)F` [Example 453, 5-{4-[4-(3-Ethoxy-4-trifluoromethyl-phenyl)-6-trifluoromethyl-pyrimidin-2-yl]-pyridin-2-yl}-thiophene-2-sulfonic acid amide]: the melting point turned out to be 237.5 °C.

Take `CC(C)(CO)NS(=O)(=O)c1cccc(-c2cc(-c3nc(-c4ccc(C(F)(F)F)cc4)cc(C(F)(F)F)n3)ccn2)c1` [Example 382, N-(2-Hydroxy-1,1-dimethyl-ethyl)-3-{4-[4-trifluoromethyl-6-(4-trifluoromethyl-phenyl)-pyrimidin-2-yl]-pyridin-2-yl}-benzenesulfonamide]: the melting point came out at 221 °C.

In turn, `Cc1cc(-c2ccc(C(F)(F)F)cc2)cc(-c2ccnc(-c3cccc(S(=O)(=O)NC(C)(C)C)c3)c2)n1` [Example 287, N-tert-Butyl-3-[6-methyl-4-(4-trifluoromethyl-phenyl)-[2,4′]bipyridinyl-2′-yl]-benzenesulfonamide] showed a melting point of 189 °C.

The molecule `Cc1cc(-c2ccc(C(F)(F)F)cc2)nc(-n2cnc(-c3ccc(N)nc3)n2)n1` [Example 151, 5-{1-[4-Methyl-6-(4-trifluoromethyl-phenyl)-pyrimidin-2-yl]-1H-[1,2,4]triazol-3-yl}-pyridin-2-ylamine] returned a melting point of 244 °C.

For `NS(=O)(=O)c1ccc(-c2cc(-c3cc(C(F)(F)F)cc(-c4ccc(C(F)(F)F)cc4)n3)ccn2)s1` [Example 321, 5-[4-Trifluoromethyl-6-(4-trifluoromethyl-phenyl)-[2,4′]bipyridinyl-2′-yl]-thiophene-2-sulfonic acid amide], the melting point was 97 °C (dec.).

`Cc1cc(-c2ccc(Cl)c(Cl)c2)nc(-c2ccnc(-c3ccc(N)nc3)c2)n1` [Example 146, 4-[4-(3,4-Dichloro-phenyl)-6-methyl-pyrimidin-2-yl]-[2,3′]bipyridinyl-6′-ylamine] yielded a melting point of 205 °C.

In turn, `CN(C)S(=O)(=O)c1cccc(-c2cc(-c3nc(-c4ccc(C(F)(F)F)cc4)cc(C(F)(F)F)n3)ccn2)c1` [Example 401, N,N-Dimethyl-3-{4-[4-trifluoromethyl-6-(4-trifluoromethyl-phenyl)-pyrimidin-2-yl]-pyridin-2-yl}-benzenesulfonamide] had a melting point of 225 °C.

In the case of `Cc1cc(-c2ccc(C(F)(F)F)cc2)cc(-c2cccc(-c3csc(N)n3)c2)n1` [Example 342, 4-{3-[6-Methyl-4-(4-trifluoromethyl-phenyl)-pyridin-2-yl]-phenyl}-thiazol-2-ylamine], the melting point was greater than 250 °C.

For `NS(=O)(=O)c1cccc(-c2cccc(-c3nc(-c4ccc(F)c(F)c4)cc(C(F)(F)F)n3)c2)c1` [Example 393, 3′-[4-(3,4-Difluoro-phenyl)-6-trifluoromethyl-pyrimidin-2-yl]-biphenyl-3-sulfonic acid amide], the melting point stood at 211 °C.

For the origin of these results see patent US8183262B2, “Pyridine derivatives as mGluR2 antagonists” (Hoffmann-La Roche Inc., priority 2007, dated 2012).
